Experimental findings from patent US9624182B2, “Compounds as lysophosphatidic acid receptor antagonists” (Amira Pharmaceuticals, Inc., priority 2009, dated 2017) are described below.

The target of the experiment is T1, human LPA1 (Homo sapiens, UniProt Q92633).
T1 construct: the full-length cDNA for human LPA1 was obtained by PCR of the reverse transcription reaction; expressed in transfected cells
T1 sequence (Q92633 whole entry): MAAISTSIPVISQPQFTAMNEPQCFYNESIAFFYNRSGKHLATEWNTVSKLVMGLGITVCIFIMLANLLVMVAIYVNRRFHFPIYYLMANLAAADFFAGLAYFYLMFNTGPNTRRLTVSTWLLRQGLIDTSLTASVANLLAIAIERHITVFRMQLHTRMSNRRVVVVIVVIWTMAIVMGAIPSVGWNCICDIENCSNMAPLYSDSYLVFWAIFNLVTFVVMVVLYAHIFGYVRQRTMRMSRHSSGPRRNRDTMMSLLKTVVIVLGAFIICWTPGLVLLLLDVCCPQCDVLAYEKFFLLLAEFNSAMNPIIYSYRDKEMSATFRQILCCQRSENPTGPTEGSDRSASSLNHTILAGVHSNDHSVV
In words: LPA1 calcium flux assay. The format is cell-based. The following applies: CHO cells expressing human LPA1, stimulated with 10 nM LPA; read-out: HLPA1 Ca Flux IC50. The essentials: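 Antagonism measured as block of 10 nM LPA-evoked calcium rise in stable human LPA1-CHO cells. After overnight serum-free culture and 1 h dye loading at 37 °C (buffer with 0.3% fatty-acid-free albumin), compound was added for 30 min at room temperature. Titration curves gave IC50.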
As for `Cc1noc(-c2ccc(-c3ccc([C@H]4C[C@H]4C(=O)O)cc3)cc2)c1CC(F)(F)CCc1ccccc1` (relative stereo) [Compound 1-135, (cis)-2-{4′-[4-(2,2-Difluoro-4-phenyl-butyl)-3-methyl-isoxazol-5-yl]-biphenyl-4-yl}-cyclopropanecarboxylic acid], the IC50 was below 300 nM. On to `CC(=O)N(Cc1ccccc1)CC(O)Cc1c(C)noc1-c1ccc(-c2ccc(C3(C(=O)O)CC3)cc2)cc1` (stereo not drawn) [Compound 1-138, 1-(4′-{4-[3-(Acetyl-benzyl-amino)-2-hydroxy-propyl]-3-methyl-isoxazol-5-yl}-biphenyl-4-yl)-cyclopropanecarboxylic acid], for which the IC50 lay in the range of 1000 to 50000 nM.

Regarding `Cc1noc(-c2ccc(-c3ccc(C4(C(=O)O)CC4)cc3)cc2)c1NC(C)C(O)Cc1ccccc1` (single isomer, unassigned) [Compound 1-283, 1-{4′-[4-(2-Hydroxy-1-methyl-3-phenyl-propylamino)-3-methyl-isoxazol-5-yl]-biphenyl-4-yl}-cyclopropanecarboxylic acid], the IC50 is below 300 nM. `Cc1noc(-c2ccc(-c3ccc(C4(C(=O)O)CC4)cc3)cc2)c1NC(C)COc1ccccc1` (stereo not drawn) [Compound 1-279, 1-{4′-[3-Methyl-4-(1-methyl-2-phenoxy-ethylamino)-isoxazol-5-yl]-biphenyl-4-yl}-cyclopropanecarboxylic acid]: the IC50 was below 300 nM. Regarding `Cc1noc(-c2ccc(-c3ccc(C(=O)CCC(=O)O)cc3)cc2)c1C(O)CCCc1ccccc1` (stereo not drawn) [Compound 1-245, 4-{4′-[4-(1-Hydroxy-4-phenyl-butyl)-3-methyl-isoxazol-5-yl]-biphenyl-4-yl}-4-oxo-butyric acid], the IC50 lay within 1000 to 50000 nM. Turning to `Cc1noc(-c2ccc(-c3ccc(C4(C(=O)O)CC4)cc3)cc2)c1CCC(=O)NCc1ccccc1` [Compound 1-42, 1-{4′-[4-(2-Benzylcarbamoyl-ethyl)-3-methyl-isoxazol-5-yl]-biphenyl-4-yl}-cyclopropanecarboxylic acid], the IC50 lay in the range of 1000 to 50000 nM. In the case of `COc1ccc(CC(C)Nc2c(C)noc2-c2ccc(-c3ccc(C4(CC(=O)O)CC4)cc3)cc2)cc1` (stereo not drawn) [Compound 1-236, [1-(4′-{4-[2-(4-Methoxy-phenyl)-1-methyl-ethylamino]-3-methyl-isoxazol-5-yl}-biphenyl-4-yl)-cyclopropyl]-acetic acid] it was 1000 to 50000 nM; in that of `Cc1noc(-c2ccc(-c3ccc(C4(C(=O)O)CC4)cc3)cc2)c1CCS(=O)(=O)Cc1ccccc1` [Compound 1-85, 1-{4′-[3-Methyl-4-(2-phenylmethanesulfonyl-ethyl)-isoxazol-5-yl]-biphenyl-4-yl}-cyclopropanecarboxylic acid], above 50000 nM; in that of `Cc1noc(-c2ccc(-c3ccc(CC(=O)O)cc3)cc2)c1C(O)CSCc1cccc(C(F)(F)F)c1` (stereo not drawn) [Compound 1-266, (4′-{4-[1-Hydroxy-2-(3-trifluoromethyl-benzylsulfanyl)-ethyl]-3-methyl-isoxazol-5-yl}-biphenyl-4-yl)-acetic acid], below 300 nM. In the case of `Cc1noc(-c2ccc(-c3ccc(CCC(=O)O)cc3)cc2)c1C(O)COCc1cccc(C(F)(F)F)c1` (stereo not drawn) [Compound 1-242, 3-(4′-{4-[1-Hydroxy-2-(3-trifluoromethyl-benzyloxy)-ethyl]-3-methyl-isoxazol-5-yl}-biphenyl-4-yl)-propionic acid], the IC50 lay in the range of 300 to 1000 nM. With `Cc1noc(-c2ccc(-c3ccc(C4(C(=O)O)CC4)cc3)cc2)c1COC(=O)NCc1ccccc1` [Compound 1-21, 1-[4′-(4-Benzylcarbamoyloxymethyl-3-methyl-isoxazol-5-yl)-biphenyl-4-yl]-cyclopropanecarboxylic acid], the IC50 is below 300 nM. For the compound `Cc1noc(-c2ccc(-c3ccc(CCC(=O)O)cc3)cc2)c1[C@H](O)CSCc1ccccc1` [Compound 1-273, 3-{4′-[4-((S)-2-Benzylsulfanyl-1-hydroxy-ethyl)-3-methyl-isoxazol-5-yl]-biphenyl-4-yl}-propionic acid], the IC50 was below 300 nM. On to `Cc1noc(-c2ccc(-c3ccc(C4(C(=O)O)CC4)cc3)cc2)c1C(O)CSCC(F)(F)F` (stereo not drawn) [Compound 1-276, 1-(4′-{4-[1-Hydroxy-2-(2,2,2-trifluoro-ethylsulfanyl)-ethyl]-3-methyl-isoxazol-5-yl}-biphenyl-4-yl)-cyclopropanecarboxylic acid], for which the IC50 is below 300 nM. Consider `Cc1noc(-c2ccc(-c3ccc(C4(C(=O)O)CC4)cc3)cc2)c1CCC(=O)N(C)[C@H](C)c1ccccc1` [Compound 1-105, 1-[4′-(3-Methyl-4-{2-[(R)-methyl-(1-phenyl-ethyl)-carbamoyl]-ethyl}-isoxazol-5-yl)-biphenyl-4-yl]-cyclopropanecarboxylic acid], for which the IC50 was below 300 nM. The value for `Cc1noc(-c2ccc(-c3ccc(C4(C(=O)O)CC4)cc3)cc2)c1CS(=O)(=O)Cc1ccccc1` [Compound 1-53, 1-[4′-(3-Methyl-4-phenylmethanesulfonylmethyl-isoxazol-5-yl)-biphenyl-4-yl]-cyclopropanecarboxylic acid] was 1000 to 50000 nM; that for `Cc1noc(-c2ccc(-c3ccc(C4(C(=O)O)CC4)cc3)cc2)c1NC(=O)CC(C)C` [Compound 1-3, 1-{4′-[3-Methyl-4-(3-methyl-butyrylamino)-isoxazol-5-yl]-biphenyl-4-yl}-cyclopropanecarboxylic acid] was 1000 to 50000 nM; that for `Cc1noc(-c2ccc(-c3ccc(C4(C(=O)O)CC4)cc3)cc2)c1CN(CC(C)c1ccccc1)C(=O)C1CC1` (stereo not drawn) [Compound 1-73, 1-[4′-(4-{[Cyclopropanecarbonyl-(2-phenyl-propyl)-amino]-methyl}-3-methyl-isoxazol-5-yl)-biphenyl-4-yl]-cyclopropanecarboxylic acid] was 1000 to 50000 nM. In the case of `Cc1onc(-c2ccc(-c3ccc(C4(CC(=O)O)CC4)cc3)cc2)c1CSCCc1ccccc1` [Compound 1-306, {1-[4′-(5-Methyl-4-phenethylsulfanylmethyl-isoxazol-3-yl)-biphenyl-4-yl]-cyclopropyl}-acetic acid] it was below 300 nM. For `Cc1noc(-c2ccc(-c3ccc(C4(C(=O)O)CC4)cc3)cc2)c1NC(C)c1cc2ccccc2s1` (stereo not drawn) [Compound 1-284, 1-{4′-[4-(1-Benzo[b]thiophen-2-yl-ethylamino)-3-methyl-isoxazol-5-yl]-biphenyl-4-yl}-cyclopropanecarboxylic acid], the IC50 was below 300 nM. On to `Cc1noc(-c2ccc(-c3ccc(C4(C(=O)O)CC4)cc3)cc2)c1COCc1ccccc1` [Compound 1-45, 1-[4′-(4-Benzyloxymethyl-3-methyl-isoxazol-5-yl)-biphenyl-4-yl]-cyclopropanecarboxylic acid], for which the IC50 was 1000 to 50000 nM. Take `Cc1noc(-c2ccc(-c3ccc(C4(C(=O)O)CC4)cc3)cc2)c1C(O)CCCc1ccccc1` (single isomer, unassigned) [Compound 1-156, 1-{4′-[4-(1-Hydroxy-4-phenyl-butyl)-3-methyl-isoxazol-5-yl]-biphenyl-4-yl}-cyclopropanecarboxylic acid]: the IC50 was below 300 nM. The value for `Cc1noc(-c2ccc(-c3ccc(C4(C(=O)O)CC4)cc3)cc2)c1NC(=O)NCc1cc(C(F)(F)F)ccc1F` [Compound 1-15, 1-(4′-{4-[3-(2-Fluoro-5-trifluoromethyl-benzyl)-ureido]-3-methyl-isoxazol-5-yl}-biphenyl-4-yl)-cyclopropanecarboxylic acid] was 1000 to 50000 nM; that for `Cc1noc(-c2ccc(-c3ccc(C4(C(=O)O)CC4)cc3)cc2)c1NC(=O)NC(C)(C)C` [Compound 1-7, 1-{4′-[4-(3-tert-Butyl-ureido)-3-methyl-isoxazol-5-yl]-biphenyl-4-yl}-cyclopropanecarboxylic acid] was below 300 nM; that for `Cc1noc(-c2ccc(-c3ccc(C4(C(=O)O)CC4)cc3)cc2)c1NC(C)CCc1ccccc1` (single isomer, unassigned) [Compound 1-221, 1-{4′-[3-Methyl-4-(1-methyl-3-phenyl-propylamino)-isoxazol-5-yl]-biphenyl-4-yl}-cyclopropanecarboxylic acid] was below 300 nM. The value for `Cc1noc(-c2ccc(-c3ccc(C4(C(=O)O)CC4)cc3)cc2)c1CO` [Compound 1-152, 1-[4′-(4-Hydroxymethyl-3-methyl-isoxazol-5-yl)-biphenyl-4-yl]-cyclopropanecarboxylic acid] was 1000 to 50000 nM; that for `Cc1noc(-c2ccc(-c3ccc(C4(C(=O)O)CC4)cc3)cc2)c1NC(=O)NCC(F)(F)F` [Compound 1-13, 1-(4′-{3-Methyl-4-[3-(2,2,2-trifluoro-ethyl)-ureido]-isoxazol-5-yl}-biphenyl-4-yl)-cyclopropanecarboxylic acid] was above 50000 nM.

For the compound `Cc1noc(-c2ccc(-c3ccc(C4(C(=O)O)CC4)cc3)cc2)c1C(O)CCCc1cccnc1` (stereo not drawn) [Compound 1-260, 1-{4′-[4-(1-Hydroxy-4-pyridin-3-yl-butyl)-3-methyl-isoxazol-5-yl]-biphenyl-4-yl}-cyclopropanecarboxylic acid], the IC50 was below 300 nM. The value for `Cc1noc(-c2ccc(-c3ccc(C4(C(=O)O)CC4)cc3)cc2)c1C(O)CSc1ccccc1` (stereo not drawn) [Compound 1-277, 1-{4′-[4-(1-Hydroxy-2-phenylsulfanyl-ethyl)-3-methyl-isoxazol-5-yl]-biphenyl-4-yl}-cyclopropanecarboxylic acid] was below 300 nM; that for `Cc1noc(-c2ccc(-c3ccc(CC(=O)O)cc3)cc2)c1[C@H](O)CSCc1ccccc1` [Compound 1-272, {4′-[4-((S)-2-Benzylsulfanyl-1-hydroxy-ethyl)-3-methyl-isoxazol-5-yl]-biphenyl-4-yl}-acetic acid] was below 300 nM; that for `Cc1noc(-c2ccc(-c3ccc(C4(CC(=O)O)CC4)cc3)cc2)c1C(O)CCCCc1ccc(Cl)c(Cl)c1` (stereo not drawn) [Compound 1-208, [1-(4′-{4-[5-(3,4-Dichloro-phenyl)-1-hydroxy-pentyl]-3-methyl-isoxazol-5-yl}-biphenyl-4-yl)-cyclopropyl]-acetic acid] was below 300 nM.
